Experimental data published in article PMC3683333, “^11C-LY2428703, a positron emission tomographic radioligand for the metabotropic glutamate receptor 1, is unsuitable for imaging in monkey and human brains” (EJNMMI Research, 2013).

What was measured:
[1] = Arterial plasma analysis after injection, monkey; type: in vivo, rhesus monkeys; settings: after intravenous injection
Protocol: (§1) Plasma analyses were performed on a reverse-phase chromatography C18 column (Novapak, 4 μm, 100 × 8 mm, Waters Corp. Milford, MA, USA) using Radial-Pak® compression module RCM-100 with a sentry pre-column. Human plasma analyses were performed with a mobile phase of […], at a flow rate of 2.5 mL/min; nonhuman primate plasma samples were analyzed with a mobile phase of MeOH/H2O/Et3N, 72.5:27.5:0.1 by volume, at a flow rate of 1.5 mL/min. To compare the outcome from both systems, elution volume is reported rather than retention time.
Arterial plasma was analyzed as previously described. Briefly, after ^11C-LY2428703 injection into either human or nonhuman primate, the input function was determined by periodically drawing anticoagulated blood samples. […] The samples were counted in the γ-counter and centrifuged at 10,000×g for 1 min. […] The precipitates were then counted for radioactivity to allow the calculation of the efficiency of recovery of radioactivity in the acetonitrile. […]
PET images were acquired using either the high-resolution research tomograph (HRRT) or the FOCUS 220 scanner (Siemens/CPS, Knoxville, TN, USA) for 120 min in 33 frames, with frame durations ranging from 30 s to 5 min, and correcting for attenuation and scatter. […] Electrocardiograph, body temperature, heart rate, and respiration rate were measured throughout the experiment. […]

[2] = Arterial plasma analysis after injection, human; type: in vivo
Protocol: as §1
Arterial plasma was analyzed as previously described. Briefly, after ^11C-LY2428703 injection into either human or nonhuman primate, the input function was determined by periodically drawing anticoagulated blood samples. Blood aliquots were removed so that the γ-counter could provide information necessary for vascular correction. The remaining blood was then centrifuged, and plasma (450 μL) aliquots were removed and placed in acetonitriles (720 μL/ea) spiked with carrier LY2428703. The samples were mixed well, 100 μL water aliquots were added, and then, the sample was further mixed. The samples were counted in the γ-counter and centrifuged at 10,000×g for 1 min. The clear supernatant liquids were injected onto the radio-HPLC as described above. The precipitates were then counted for radioactivity to allow the calculation of the efficiency of recovery of radioactivity in the acetonitrile. Human plasma samples were separated with a mobile phase of higher polarity ([…]) to ensure that the parent radiochromatographic peak comprised a single radiochemical species.
(§2) PET images were acquired using the GE Advance scanner (GE Healthcare, Milwaukee, WI, USA) for 120 min. An 8-min ^68Ge transmission scan was obtained before the injection of the radiotracer for attenuation correction. The mean injected activity was 328 ± 12 MBq. The specific activity at the time of injection was 87.2 ± 34.7 GBq/μmol, which corresponded to 5.5 ± 2.3 nmol (0.082 ± 0.037 nmol/kg) of carrier. Blood samples (1 mL each) were drawn from the radial artery at 15-s intervals until 150 s, followed by 3-mL samples at 3, 4, 6, 8, 10, 15, 20, 30, 40, and 50 min, and 4.5 mL at 60, 75, 90, and 120 min. The unchanged parent fraction in plasma and fP of ^11C-LY2428703 were determined as described above.

mGluR1 = mGluR1 (Homo sapiens, UniProt Q13255); assay: Brain PET at baseline, human; type: in vivo; design: from tissue; host or cells: brain of living healthy human volunteers (in vivo PET); settings: for VT: mean ± SD
Text: (§3) Three healthy females participated in the study (29 ± 2-year old, 69 ± 13 kg). All were free from current medical and psychiatric illnesses, as assessed by medical history, physical examination, electrocardiogram, urinalysis including drug screening, and blood tests (complete blood count, serum chemistries, thyroid function test, and antibody screening for syphilis, HIV, and hepatitis B). The National Institutes of Health Central Nervous System Institutional Review Board approved the protocols and the consent forms. Written informed consent was obtained from all subjects.
as §2
To identify brain regions, magnetic resonance (MR) images were obtained using a 3-T GE Signa device (GE Healthcare, Milwaukee, WI, USA). T1-weighted structural images were acquired with a voxel size of 0.86 mm × 0.86 mm × 1.2 mm. The image acquisition sequences were the time of repetition (7.3 ms), echo time length (2.8 ms), and flip angle (6°).
The average PET image created from all frames was first coregistered to the individual MR image. Then, both MR and all PET images were spatially normalized to a standard anatomic orientation (Montreal Neurological Institute (MNI) space) based on transformation parameters from the MR images. A volume-of-interest template as implemented in PMOD (PMOD Technologies Ltd, Zurich, Switzerland) was used to obtain brain time-activity curves.
Volumes of distribution (VT) were obtained by nonlinear compartmental analysis. Goodness-of-fit by nonlinear least squares analysis was evaluated using the Akaike Information Criterion (AIC) and Model Selection Criterion (MSC). The most appropriate model is that with the smallest AIC and the largest MSC score. Goodness-of-fit by the compartment models was compared with F statistics. A value of P < 0.05 was considered significant for F statistics. The identifiability of kinetic variables was calculated as standard error obtained from the diagonal of the covariance matrix and expressed as a percentage of the rate constant.

[3] = Pharmacological effects of injection, human; type: in vivo; settings: three human subjects
Text: as §3

mGluR1, sequence (Q13255 19-1194): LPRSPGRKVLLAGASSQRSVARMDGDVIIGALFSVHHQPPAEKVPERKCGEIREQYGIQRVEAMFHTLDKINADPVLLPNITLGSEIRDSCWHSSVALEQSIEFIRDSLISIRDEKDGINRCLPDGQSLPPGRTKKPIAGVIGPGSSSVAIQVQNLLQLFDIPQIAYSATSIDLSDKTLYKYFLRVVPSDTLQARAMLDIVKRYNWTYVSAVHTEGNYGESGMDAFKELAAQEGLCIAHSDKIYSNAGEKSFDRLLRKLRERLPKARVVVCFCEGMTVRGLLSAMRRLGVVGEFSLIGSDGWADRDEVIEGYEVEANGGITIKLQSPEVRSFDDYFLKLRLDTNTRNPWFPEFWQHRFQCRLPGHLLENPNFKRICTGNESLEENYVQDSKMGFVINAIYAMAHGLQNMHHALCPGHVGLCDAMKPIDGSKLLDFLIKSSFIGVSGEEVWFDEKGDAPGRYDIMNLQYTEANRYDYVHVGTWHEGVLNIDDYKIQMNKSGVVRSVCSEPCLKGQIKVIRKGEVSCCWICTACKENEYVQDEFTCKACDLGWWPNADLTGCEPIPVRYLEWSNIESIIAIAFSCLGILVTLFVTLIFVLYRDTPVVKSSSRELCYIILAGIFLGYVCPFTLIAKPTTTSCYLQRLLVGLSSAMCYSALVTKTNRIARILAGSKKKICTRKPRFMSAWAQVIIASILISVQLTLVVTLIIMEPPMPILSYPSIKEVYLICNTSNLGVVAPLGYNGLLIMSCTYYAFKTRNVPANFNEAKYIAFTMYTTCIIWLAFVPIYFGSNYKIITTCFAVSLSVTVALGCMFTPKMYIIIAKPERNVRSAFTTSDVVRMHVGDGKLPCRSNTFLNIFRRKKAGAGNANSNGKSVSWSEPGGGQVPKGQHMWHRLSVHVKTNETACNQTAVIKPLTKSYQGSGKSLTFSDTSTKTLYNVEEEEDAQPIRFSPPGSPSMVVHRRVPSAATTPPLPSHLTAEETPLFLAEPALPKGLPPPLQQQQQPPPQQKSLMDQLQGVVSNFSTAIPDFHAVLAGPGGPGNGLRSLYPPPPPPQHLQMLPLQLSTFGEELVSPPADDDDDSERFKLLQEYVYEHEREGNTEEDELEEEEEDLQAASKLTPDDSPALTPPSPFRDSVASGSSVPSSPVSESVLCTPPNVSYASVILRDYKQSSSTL

time of peak plasma concentration [1]: 1 to 1.5 min | peak plasma concentration [2]: 33 ± 5 SUV | time of peak plasma concentration [2]: 1.5 ± 0 min | radiometabolites in plasma ([2]; at 2 h): approximately 1% | parent radioligand as share of total blood radioactivity ([2]; entire 2-h imaging period): ~99% | VT values (mGluR1; 2TCM, all brain regions): < 0.1 mL/cm^3 | time of brain peak uptake (mGluR1; after injection): 1.3 ± 0 min | time at which brain activity decreased to 50% of the peak (mGluR1; average): 20 min | VT (mGluR1; caudate, two-tissue compartment model): 0.086 ± 0.024 (22.6%) mL · cm^−3 | VT (mGluR1; cerebellum, two-tissue compartment model): 0.090 ± 0.010 (2.8%) mL · cm^−3 | VT (mGluR1; frontal cortex, two-tissue compartment model): 0.092 ± 0.016 (14.2%) mL · cm^−3 | VT (mGluR1; parietal cortex, two-tissue compartment model): 0.087 ± 0.011 (4.9%) mL · cm^−3 | VT (mGluR1; temporal cortex, two-tissue compartment model): 0.102 ± 0.010 (4.4%) mL · cm^−3 | mean VT (mGluR1; two-tissue compartment model): 0.093 ± 0.012 mL/cm^3 | brain peak uptake (mGluR1; without vascular correction): 1.14 ± 0.18 SUV
SMILES: Cc1c(-c2ccc(O[11CH3])cc2)nsc1NC(=O)[C@@H]1C[C@H]1C [^11C-LY2428703]
pharmacological effects (vital signs, electrocardiogram, laboratory testing, verbal reports) [3]: no pharmacological effects
